This passage reports mass density results from the NIST ThermoML archive (doi:10.1021/je200352g).

For this series the following is noted: 298 K; 101.33 kPa; Crystal; X-ray diffraction.

Numbers after ± are expanded uncertainties.

As to `CCCCCCCCC[NH3+].O=P([O-])(O)O` [1-nonylammonium dihydrogen phosphate], the mass density (in general, the mass of a sample divided by its volume) is given as 1268 ± 2 kg/m3.

Regarding `CCCCCCCC[NH3+].O=P([O-])(O)O` [1-octanaminium dihydrogen phosphate], the mass density is listed as 1282 ± 2 kg/m3.
